IC50 and inhibition data for ten compounds are collected here from patent US5629347A, “Aromatic compounds, pharmaceutical compositions containing them and their use in therapy” (Merck Sharp & Dohme Ltd., priority 1991, dated 1997).

In this assay the target is human NK1R (Homo sapiens, UniProt P25103). Briefly: biochemical. It counts as binding. The settings on record: for IC50: displacement of 125I-substance P, human NK1R in COS or CHO cells. The protocol:
To express the cloned human neurokinin-1-receotor (NK1R) transiently in COS, the cDNA for the human NK1R was cloned into the expression vector pCDM9 which was derived from pCDM8 (INVITROGEN) by inserting the ampicillin resistance gene (nucleotide 1973 to 2964 from BLUESCRIPT SK+ (trademark, […], La Jolla, Calif., U.S.A.)) into the Sac II site. Transfection of 20 ug of the plasmid DNA into 10 million COS cells was achieved by electroporation in 800 μl of transfection buffer (135 mM NaCl, 1.2 mM CaCl2, 1.2 mM MgCl2, 2.4 mM K2 HPO4, 0.6 mM KH2 PO4, 10 mM glucose, 10 mM N-2-hydroxyethyl-piperazine-N'-2-ethane sulphonic acid (HEPES) pH 7.4) at 260 V and 950 μF using the IBI GENEZAPPER (trademark IBI, New Haven, Conn., U.S.A.). The cells were incubated in 10% fetal calf serum, 2 mM glutamine, 100 U/ml penicillin-streptomycin, and 90% DMEM media (GIBCO, Grand Island, N.Y., U.S.A.) in 5% CO2 at 37° C. for three days before the binding assay.
To establish a stable cell line expressing cloned human NK1R, the cDNA was subcloned into the vector pRcCMV (INVITROGEN). Transfection of 20 ug of the plasmid DNA into CHO cells was achieved by electroporation in 800 μl of transfection buffer supplemented with 0.625 mg/ml Herring sperm DNA at 300 V and 950 μF using the IBI GENEZAPPER (IBI). The transfected cells were incubated. in CHO media [10% fetal calf serum, 100 U/ml penicillin-streptomycin, 2 mM glutamine, 1/500 hypoxanthinethymidine (ATCC), 90% IMDM media (JRH BIOSCIENCES, Lenexa, Kans., U.S.A.), 0.7 mg/ml G418 (GIBCO)] in 5% CO2 at 37° C. until colonies were visible. Each colony was separated and propagated. The cell clone with the highest number of human NK1R was selected for subsequent applications such as drug screening.
The binding assay of human NK1R expressed in either COS or CHO cells is based on the use of ^125 I-substance P (^125 I-SP, from DU PONT, Boston, Mass.) as a radioactively labeled ligand which competes with unlabeled substance P or any other ligand for binding to the human NK1R. […] The tubes were incubated at 4° C. or at room temperature for 1 hour with gentle shaking. The bound radioactivity was separated from unbound radioactivity by GF/C filter (BRANDEL, Gaithersburg, Md.) which was prewetted with 0.1% polyethylenimine. The filter was washed with 3 ml of wash buffer (50 mM Tris pH 7.5, 5 mM MnCl2, 150 mM NaCl) three times and its radioactivity was determined by gamma counter.
(Loss of bound radioactivity is the signal in a displacement assay; it reports binding, not function.)

Structures can show the parent of a compound that is named as a salt.

Sequence of human NK1R (P25103 whole entry): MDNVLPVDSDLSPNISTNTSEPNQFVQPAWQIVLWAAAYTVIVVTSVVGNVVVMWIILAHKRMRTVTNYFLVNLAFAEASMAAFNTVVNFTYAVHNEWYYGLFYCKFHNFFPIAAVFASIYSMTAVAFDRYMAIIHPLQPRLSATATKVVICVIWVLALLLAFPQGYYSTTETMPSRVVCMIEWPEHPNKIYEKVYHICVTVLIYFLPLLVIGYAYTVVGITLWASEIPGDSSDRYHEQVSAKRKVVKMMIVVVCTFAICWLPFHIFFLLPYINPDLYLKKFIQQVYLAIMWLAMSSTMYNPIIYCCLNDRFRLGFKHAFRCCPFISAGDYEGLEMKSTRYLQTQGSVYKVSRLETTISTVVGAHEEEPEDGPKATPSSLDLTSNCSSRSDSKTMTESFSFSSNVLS

By IC50 is commonly meant the point on the concentration scale where inhibition reaches its midpoint. A low value points to greater potency. The compound `Cc1cc(C)cc(COCC(C(c2ccccc2)c2ccccc2)N2CCCCC2)c1` (stereo not shown) [Example 14, 3,3-Diphenyl-1-((3,5-dimethylphenyl)methyloxy)-2-(piperidin-1-yl)propane hydrochloride salt] showed an IC50 of 70 nM. `CC(c1cccc(Cl)c1)C(N)COCc1cc(C(F)(F)F)cc(C(F)(F)F)c1` (single isomer, unassigned) [71 (diastereomer B), 2-Amino-1-((3,5-bis(trifluoromethyl)phenyl)methyloxy)-3-(3-chlorophenyl)-butane]: the inhibition at 0.3 µM (1 h, @ 0.3 μM, read-out: Substance P antagonism (%)) stood at 42%. In turn, `NC(COCc1ccccc1)C(c1ccccc1)c1ccccc1` (stereo not shown) [Example 25, 2-Ammonium-1-benzyloxy-3,3-diphenylpropane oxalate salt] returned an IC50 of 600 nM. As for `Cc1cc(C)cc(COCC(NCc2ccccc2)C(c2ccccc2)c2ccccc2)c1` (stereo not shown) [Example 11, 2-Benzylammonium-1-((3,5-dimethylphenyl)methyloxy)-3,3-diphenyl propane], the IC50 is 320 nM.

`CN(CC(N)=O)C(COCc1cc(C(F)(F)F)cc(C(F)(F)F)c1)C(c1ccccc1)c1ccccc1` (stereo not shown) [Example 72, 1-((3,5-Bis(trifluoromethyl)phenyl)methyloxy)-2-(N-((carboxamido)methyl)-N-methyl)ammonium-3,3-diphenylpropane oxalate salt] yielded an IC50 of 7 nM.

For `CN(C)C(=O)CN(C)C(COCc1cc(C(F)(F)F)cc(C(F)(F)F)c1)C(c1ccccc1)c1ccccc1` (stereo not shown) [Example 49, N-(1-((3',5'-Bis(trifluoromethyl)phenyl)methyloxy)-3,3-diphenylprop-2-yl)-N-methylglycine dimethylamide oxalate salt], the half-inhibitory concentration (IC50) stood at 15 nM. `Cc1cc(C)cc(COCC(NC(=O)c2ccccc2)C(c2ccccc2)c2ccccc2)c1` (stereo not shown) [Example 40, 2-Benzamido-1-(((3,5-dimethyl)phenyl)methyloxy)3,3-diphenylpropane] yielded an IC50 of 580 nM. Still for that read-out and setting: as for `CS(=O)(=O)NC(COCc1cc(C(F)(F)F)cc(C(F)(F)F)c1)C(c1ccccc1)c1ccccc1` (stereo not shown) [Example 69, 1-((3,5-Bis(trifluoromethyl)phenyl)methyloxy)-3,3-diphenyl-2-methylsulphonamidopropane], the figure is 35 nM. `COc1ccccc1CNC(=O)C(NC(=O)OC(C)(C)C)C(c1ccccc1)c1ccccc1` (stereo not shown) [Example 3, 2-t-Butoxycarbonylamino-3,3-diphenylpropanoyl-(2-methoxyphenyl)methylamide]: where the note is “1 h, @ 10 μM, read-out: Substance P antagonism (%)”, the inhibition at 10 µM was 77%. Turning to `NC(COCc1cc(Br)cc(Br)c1)C(c1ccccc1)c1ccccc1` (stereo not shown) [Example 32, 2-Ammonium-1-((3,5-dibromophenyl)methyloxy)-3,3-diphenylpropane oxalate salt], the IC50 was 30 nM.
